According to patent US7319021B2, “Cell lysis composition, methods of use, apparatus and kit” (Promega Corporation, priority 2002, dated 2008):
Values joined by “and” are separate entries in the source; they are usually repeats but may differ in a detail not shown here. Equal values may be shown once.

Key:
[1] = test system: E. coli cells; assay: Optical density and visual turbidity of E. coli culture after treatment (Example 2); format: cell-based
Method: E. coli bacteria expressing His-tagged Renilla Luciferase were grown in Luria Broth [L Broth]+10 ng/ml tetracycline [Tet] [50 ml of media in a 250 ml flask] at 37° C. overnight in a shaking incubator rotating at 200 RPM. The E. coli strain was prepared by transforming E. coli with a vector expressing histidine-tagged Renilla luciferase. The vector was constructed by conventional methods. See Maniatis et al., “Molecular Cloning: A Laboratory Manual,” 2nd Edition, Cold Spring Harbor Laboratory, Cold Spring Harbor, N.Y. (1982). Following overnight culture the bacterial cells were diluted 1:100 into fresh L broth+Tet and grown to a density of 0.6 at 600 nm [OD 600 0.6] at 37C on the shaking incubator. Renilla expression was induced by addition of isopropyl-beta-D-thiogalactopyranoside (IPTG) from a 1M filter sterilized solution to a final concentration of 1 mM. The culture was grown for 4 additional hours at 37C on the shaking incubator before use. […]
900 ul of 20 mM Tris-HCl pH 7.3 and 100 ul of the corresponding solutions were added to each of 12 disposable plastic cuvettes. After the instrument background was set to zero with a 20 mM Tris-HCl pH 7.3 solution at an optical density of 600 nm (OD600), and the optical density of the solutions was measured.

[2] = test system: E. coli cells; assay: Release of Renilla Luciferase from E. coli (Example 2); format: cell-based
Method: E. coli bacteria expressing His-tagged Renilla Luciferase were grown in Luria Broth [L Broth]+10 ng/ml tetracycline [Tet] [50 ml of media in a 250 ml flask] at 37° C. overnight in a shaking incubator rotating at 200 RPM. The E. coli strain was prepared by transforming E. coli with a vector expressing histidine-tagged Renilla luciferase. The vector was constructed by conventional methods. See Maniatis et al., “Molecular Cloning: A Laboratory Manual,” 2nd Edition, Cold Spring Harbor Laboratory, Cold Spring Harbor, N.Y. (1982). Following overnight culture the bacterial cells were diluted 1:100 into fresh L broth+Tet and grown to a density of 0.6 at 600 nm [OD 600 0.6] at 37C on the shaking incubator. Renilla expression was induced by addition of isopropyl-beta-D-thiogalactopyranoside (IPTG) from a 1M filter sterilized solution to a final concentration of 1 mM. The culture was grown for 4 additional hours at 37C on the shaking incubator before use.
One ml of the Renilla luciferase expressing E. coli culture was added to each of 12 tubes, labeled 1 through 12: tubes 1-3, no further addition; tubes 4-6, 10 ul of 10 mg/ml lysozyme; tubes […], 100 ul of CLR formulation A, and; tubes 10-12, 100 ul of CLR formulation A and 10 ul of 10 mg/ml lysozyme. […]

lysozyme: 10 mg/ml solution of lysozyme [Sigma L 6876] in 20 mM Tris-HCl buffer, pH 7.3; 10 ul per ml culture
OD600 ([1]; 100 ul of treated culture in 900 ul 20 mM Tris-HCl pH 7.3, culture expressing His-tagged Renilla Luciferase): 0.3264 and 0.3261 and 0.3033 | level of turbidity, visual inspection ([1]; tubes inverted 10 times): very turbid | Relative Light Units Resuspended Pellet Sample ([2]; 2 ul of pellet resuspended in 800 ul): 58.41 Relative Light Units and 60.99 Relative Light Units and 72.03 Relative Light Units | Relative light Units, Supernatant Sample ([2]; 2 ul of supernatant): 0.053 Relative light Units and 0.074 Relative light Units and 0.048 Relative light Units
